{"source": "patent US20100204129A1", "about": "“USE OF A PEPTIDE AS A THERAPEUTIC AGENT” (priority 2008, published 2010)", "key": {"HepG2-2.2.15 cells": {"test_system": "HepG2-2.2.15 cells", "conditions": "peptide 10 micrograms per ml, dye uptake assay, % cell control"}, "HIV-1IIIB": {"test_system": "HIV-1IIIB", "assay": "HIV-1 antiviral assay (CPE reduction, MTS)", "type": "cell-based", "conditions": "peptide 10 micrograms per ml, 6 days post-infection"}, "CEM-SS cells": {"test_system": "CEM-SS cells", "assay": "Cytotoxicity in HIV-1 assay (MTS cell viability)", "conditions": "CEM-SS cells, cells plus peptide only; peptide 10 micrograms per ml; MTS"}, "MRC-5 cells": {"test_system": "MRC-5 cells", "conditions": "human, 6 days", "description": "For cytotoxicity testing, MRC-5 cells were seeded at 2,500 cells/well in 96 well plates using growth medium. […] The following day, peptide was added and tested in duplicates. After a 6 days incubation period, cell viability was measured using CellTiter 96 Solution (Promega). Plates were incubated for additional 4 hours at 37° C. Adhesive plate sealers were used in place of lids, the sealed plates were inverted several times to mix the soluble formazan product and the plate was read spectrophotometrically at 490/560 nm with a Molecular Devices Vmax plate reader."}, "HCMV strain AD169": {"test_system": "HCMV strain AD169", "assay": "HCMV plaque reduction assay in MRC-5 cells", "conditions": "HCMV in MRC-5 cells; peptide 10 micrograms per ml; 7-10 days"}}, "data": [{"smiles": "Nc1ccn([C@@H]2CS[C@H](CO)O2)c(=O)n1", "note": "[3TC, Lamivudine, reference compound]", "values": [{"measurement": "% Cell viability", "setting": "HepG2-2.2.15 cells", "value": 95.8, "unit": "%"}]}, {"smiles": "Cc1cn([C@H]2C[C@H](N=[N+]=[N-])[C@@H](CO)O2)c(=O)[nH]c1=O", "note": "[AZT, reference compound]", "values": [{"measurement": "% CPE reduction in HIV-1 infected CEM-SS cells", "setting": "HIV-1IIIB", "value": 99, "unit": "%"}, {"measurement": "% Cell viability", "setting": "CEM-SS cells", "value": 97, "unit": "%"}]}, {"smiles": "Nc1nc(O)c2ncn(COC(CO)CO)c2n1", "note": "[Ganciclovir, reference compound]", "values": [{"measurement": "% Cell viability", "setting": "MRC-5 cells", "value": 100, "unit": "%"}, {"measurement": "% plaque reduction", "setting": "HCMV strain AD169", "value": 100, "unit": "%"}]}, {"smiles": "CC(C)(C)NC(=O)[C@@H]1CN(Cc2cccnc2)CCN1C[C@@H](O)C[C@@H](Cc1ccccc1)C(=O)N[C@H]1c2ccccc2C[C@H]1O", "note": "[Indinavir, indinavir]", "values": [{"measurement": "% CPE reduction in HIV-1 infected CEM-SS cells", "setting": "HIV-1IIIB", "value": 100, "unit": "%"}]}]}
